We go through 20 substances from patent US11214803B2, “Modulators of YAP1 expression” (Ionis Pharmaceuticals, Inc., priority 2019, dated 2022).

Strand notation (5' to 3'): a small letter for the sugar, then the base; units joined by * are phosphorothioate-linked, units joined directly phosphodiester-linked; [ ] holds rarer units or linkages, { } end groups; capitals alone tell only the bases. k = constrained ethyl (cEt); [5mC] = 5-methylcytosine; d = 2'-deoxy (DNA)

The first series concerns Yap1 mRNA. Put plainly: Antisense inhibition of human Yap1 in A-431 cells by cEt gapmers, single dose (Example 2, RTS4814). The series is classed as cell-based. Particulars: A-431 cells, 5,000 cells per well, free uptake, 2,000 nM modified oligonucleotide, approx. 48 hours, RTS4814, normalized to RIBOGREEN; Table 4; asterisk (*) = targets amplicon region of primer probe set. The essentials: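 Read-out is Yap1 mRNA as percent of untreated cells, by real-time RT-PCR (probe set RTS4814) normalized to total RNA via RIBOGREEN. Cells were A-431 dosed with 2,000 nM gapmer without transfection for approximately 48 hours.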
Regarding “716544 (antisense kT*kA*k[5mC]*dT*dT*dA*dA*d[5mC]*dA*d[5mC]*dA*dG*d[5mC]*kA*kA*k[5mC]) [Compound 716544]”, the “YAP1 (% UTC)” value worked out at 71 % UTC.
The same measure, in the same setting: then “716547 (kG*kG*kT*dA*dT*dG*dA*dA*dT*dT*d[5mC]*dT*dG*kA*kA*kT; antisense) [Compound 716547]”, with 44 % UTC; and “716550 (kG*k[5mC]*kA*d[5mC]*dT*dG*dA*dA*dT*dA*dT*dT*dG*k[5mC]*k[5mC]*kA; antisense) [Compound 716550]”, with 77 % UTC.
The same measure, in the same setting: the value for “716553 (kA*kT*k[5mC]*d[5mC]*dA*d[5mC]*d[5mC]*dT*dG*dA*dG*d[5mC]*dA*k[5mC]*kT*k[5mC]; antisense) [Compound 716553]” was 54 % UTC; that for “716556 (kG*k[5mC]*kA*dT*dT*dA*dA*dA*dG*dA*dA*dT*dT*k[5mC]*kT*k[5mC]; antisense) [Compound 716556]” was 39 % UTC; that for “716559 (k[5mC]*k[5mC]*kT*dA*dA*d[5mC]*dA*dT*dA*dT*dG*dA*dG*k[5mC]*kA*kT; antisense) [Compound 716559]” was 62 % UTC.

Still in this series, the particulars now being: Table 5; A-431 cells, 5,000 cells per well, free uptake, 2,000 nM modified oligonucleotide, approx. 48 hours; RTS4814; normalized to RIBOGREEN; Yap1 mRNA relative to untreated control cells.
As to “716542 (antisense k[5mC]*kT*kT*d[5mC]*d[5mC]*d[5mC]*dT*dG*dT*dG*dT*dT*d[5mC]*kA*kT*kT) [Compound 716542]”, the “YAP1 (% UTC)” value was 45 % UTC.
Still for that read-out and setting: the value for “716545 (kG*k[5mC]*kA*dT*dG*dT*dA*dT*dT*dT*dA*dA*dT*kA*kT*kG; antisense) [Compound 716545]” was 91 % UTC.
For the substance “716548 (kG*kA*kG*dT*dT*dT*d[5mC]*dA*dA*d[5mC]*dA*d[5mC]*dT*kG*kA*kT; antisense) [Compound 716548]”, the “YAP1 (% UTC)” value amounted to 31 % UTC.
For “716551 (k[5mC]*kG*k[5mC]*dT*dA*dG*dA*dA*dA*dA*dG*dT*dG*kT*kT*kA; antisense) [Compound 716551]”, the “YAP1 (% UTC)” value was determined as 76 % UTC.
As for “716554 (kA*kT*kG*d[5mC]*dT*dT*dG*d[5mC]*dG*dA*dG*dG*dA*kT*kA*kA; antisense) [Compound 716554]”, the “YAP1 (% UTC)” value is reported as 30 % UTC.
On the same count and under the same terms, then “716557 (kA*kT*kT*dG*dG*dT*dA*d[5mC]*dT*dA*dT*dA*dT*kA*kT*kA; antisense) [Compound 716557]”, with 80 % UTC.
For the substance “716560 (kT*kA*kA*d[5mC]*dA*dA*dT*dT*dT*dA*dT*dG*dT*kA*kA*kG; antisense) [Compound 716560]”, the “YAP1 (% UTC)” value turned out to be 107 % UTC.

Still in this series, the particulars now being: Table 6; A-431 cells, 5,000 cells per well, free uptake, 2,000 nM modified oligonucleotide, approx. 48 hours; RTS4814; normalized to RIBOGREEN; Yap1 mRNA relative to untreated control cells.
For the substance “716543 (antisense kT*kA*kT*dT*dT*dG*dT*dA*dG*d[5mC]*dA*dA*dA*kG*kT*k[5mC]) [Compound 716543]”, the “YAP1 (% UTC)” value was 35 % UTC.
Same read-out and setting: the value for “716546 (k[5mC]*kA*k[5mC]*dA*dA*dT*dT*dA*dA*dT*dT*dA*d[5mC]*kT*kG*kT; antisense) [Compound 716546]” was 103 % UTC.
As for “716549 (k[5mC]*k[5mC]*kA*d[5mC]*dT*dT*dT*dT*dG*d[5mC]*dA*dA*dT*kG*kT*kT; antisense) [Compound 716549]”, the “YAP1 (% UTC)” value stood at 44 % UTC.
“716552 (kT*kT*kT*d[5mC]*dT*d[5mC]*dA*dG*dA*dT*dG*dT*dA*k[5mC]*k[5mC]*kA; antisense) [Compound 716552]”: the “YAP1 (% UTC)” value is on record as 53 % UTC.
On to “716555 (kT*kA*k[5mC]*dT*dT*dT*dT*dT*d[5mC]*dA*dA*dG*dA*kT*kA*k[5mC]; antisense) [Compound 716555]”, for which the “YAP1 (% UTC)” value was found to be 99 % UTC.
As to “716558 (k[5mC]*kT*k[5mC]*dT*dT*dA*d[5mC]*dA*dT*d[5mC]*dT*dA*dA*kA*kA*k[5mC]; antisense) [Compound 716558]”, the “YAP1 (% UTC)” value was determined as 81 % UTC.
Same read-out and setting: the value for “716561 (kA*kA*kG*dG*dT*dA*dT*dT*dA*d[5mC]*dA*dT*dA*kA*kG*kA; antisense) [Compound 716561]” was 58 % UTC.
